The target in this experiment is Genome polyprotein (dengue virus type 2, UniProt P29990). Format: functional, Thailand/16681/1984.

pIC50: −log10 of the molar value. Values joined by “and” are separate entries in the source; they are usually repeats but may differ in a detail not shown here. Equal entries are not always repeated. Bounds are passed on as bounds.

Sequence of Genome polyprotein (P29990 1346-1475 limits assumed): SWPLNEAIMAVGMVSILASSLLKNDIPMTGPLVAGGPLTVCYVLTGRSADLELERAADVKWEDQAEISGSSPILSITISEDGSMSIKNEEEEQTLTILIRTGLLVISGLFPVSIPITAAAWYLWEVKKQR
Sequence of Genome polyprotein (P29990 1476-2093 limits assumed): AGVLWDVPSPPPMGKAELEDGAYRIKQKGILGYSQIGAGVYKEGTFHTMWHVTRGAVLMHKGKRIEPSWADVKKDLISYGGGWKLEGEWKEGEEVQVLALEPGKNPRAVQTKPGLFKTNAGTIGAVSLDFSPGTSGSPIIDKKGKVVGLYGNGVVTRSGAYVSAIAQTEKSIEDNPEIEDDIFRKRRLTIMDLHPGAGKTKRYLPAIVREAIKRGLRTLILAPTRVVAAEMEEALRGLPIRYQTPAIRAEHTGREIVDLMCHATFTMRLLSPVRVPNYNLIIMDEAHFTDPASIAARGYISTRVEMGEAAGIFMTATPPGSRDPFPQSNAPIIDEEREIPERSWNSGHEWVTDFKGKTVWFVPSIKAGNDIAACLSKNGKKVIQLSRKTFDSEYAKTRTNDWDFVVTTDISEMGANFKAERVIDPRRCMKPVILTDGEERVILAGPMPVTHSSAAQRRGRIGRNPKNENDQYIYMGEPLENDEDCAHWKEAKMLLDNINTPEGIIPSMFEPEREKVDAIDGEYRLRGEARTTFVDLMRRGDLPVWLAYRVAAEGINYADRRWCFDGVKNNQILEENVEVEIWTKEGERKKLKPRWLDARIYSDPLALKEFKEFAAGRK

As usually defined, the pIC50 is the IC50 on a negative log10 scale, so that one unit is a factor of ten. Read a low pIC50 as a large IC50. In turn, `O=C(O)c1cccc(NC(=O)c2ccc3[nH]ccc3c2)c1` showed a pIC50 of under 4.00.
With `NCc1cccc(C(=O)Nc2cc(Cl)cc(NC(=O)OCc3ccccc3)c2)c1` the figure was 4.17; with `COc1ncc(C(=O)Nc2cccc(CN)c2)cc1NC(=O)OCc1ccccc1`, under 4.00; with `NCc1cccc(NC(=O)[C@@H](NC(=O)OCc2ccccc2)c2ccc(C3=CCCOC3)cc2)c1`, under 4.00.
As for `CCn1cc(-c2ccnc(C)c2)nc(N2CC[C@@H](CO)C2)c1=O`, the pIC50 was under 4.00.
Under `COc1ccc(CN(C)C)cc1NC(=O)[C@@H](NC(=O)OCc1ccccc1)c1ccc(OCc2ccccc2)cc1` stands under 4.00.
With `Cc1c(C(=O)Nc2cccc(-c3cncnc3O)c2)cc(C2CC2)n1C` the figure was under 4.00.
With `O=C(O)c1cc(Cl)ccc1S(=O)(=O)Nc1ccc(-c2cccc(F)c2)cc1` the figure was 4.57.
`c1cnc2c(c1)CC[C@@H]2NCc1n[nH]c2ccccc12`: the negative logarithm of the IC50 (pIC50) was under 4.00.
`CCn1c(=O)c(N2C[C@@H]3[C@H](C2)[C@H]3C(=O)OC)nc2ccccc21` had a negative-log IC50 (pIC50) of under 4.00.
Under `NCc1cccc(NC(=O)[C@H](NS(=O)(=O)C[C@H]2COCCO2)c2ccc(OCc3ccccc3)cc2)c1` stands under 4.00; under `CCn1c(=O)c(N2CC[C@H](N3CCN(C)CC3)C2)nc2ccccc21`, under 4.00.
Under `O=C(O)Cn1ccnc(N2CC[C@@H](CO)C2)c1=O` stands under 4.00; under `O=C(Nc1cc(Cl)cc(C(=O)Nc2cccc(CC3CCNCC3)c2)c1)OCc1ccccc1`, under 4.00.
Under `Cn1cc(C(=O)N[C@@H](C(=O)Nc2cccc(CN)c2)c2ccc(OCc3ccccc3)cc2)cn1` stands under 4.00; under `CCn1cc(C(=O)NC)nc(N2CC[C@@H](CO)C2)c1=O`, under 4.00.
`c1ccc2nc(SCc3cn4ccccc4n3)cnc2c1` gave a negative logarithm of the IC50 (pIC50) of under 4.00.
Under `Cc1cc(NC(=O)c2cc(C3CC3)n(C)c2C)cnc1N1CCCCC1` stands under 4.00.
With `Cn1cc(NS(=O)(=O)c2ccc(Oc3ccccc3Cl)cc2)c(C(=O)O)n1` the figure was under 4.00; with `O=C(c1cc(Cl)cc2[nH]ncc12)N1CCC[C@H]1C1CCNCC1`, under 4.00.
With `NCc1cccc(NC(=O)[C@H](NC(=O)Cn2cccn2)c2ccc(OCc3ccccc3)cc2)c1` the figure was under 4.00; with `CCn1cc(-c2cccc(-n3cccn3)c2)nc(N2CC[C@@H](CO)C2)c1=O`, under 4.00.
As to `N#Cc1ccccc1O[C@H]1CC[C@H](NS(=O)(=O)c2ccc(Cl)cc2C(=O)O)CC1`, the pIC50 is under 4.00.
Consider `Fc1cc(F)c2[nH]cc(CN3CCC(c4cscn4)CC3)c2c1F`, for which the pIC50 was under 4.00.
With `Brc1cnn(C2CCN(Cc3csnn3)CC2)c1` the figure was under 4.00; with `CCn1c(=O)c(N2C[C@H]3C[C@H]2CS(=O)(=O)C3)nc2ccccc21`, under 4.00.
`NCc1cccc(NC(=O)[C@H](NS(=O)(=O)Cc2ccccc2)c2ccc(OCc3ccccc3)cc2)c1` had a pIC50 of under 4.00.
Under `Cn1c(Sc2nc3ccccc3o2)nc2sccc2c1=O` stands under 4.00; under `NCc1cccc(NC(=O)[C@@H](NC(=O)OCc2ccccc2)c2ccc(Br)cc2)c1`, 4.05 and 4.20; under `C[C@H]1c2cc(O)c(O)cc2CCN1C(=O)C1CCN(c2ccc(C=O)cc2)CC1`, 4.09.
With `NC[C@H]1CC[C@@H](CNC(=O)[C@@H](NC(=O)OCc2ccccc2)c2ccc(OCc3ccccc3)cc2)CC1` the figure was 4.07; with `O=C(O)c1cc(Cl)ccc1S(=O)(=O)Nc1ccc(Oc2ccccc2Cl)cc1`, 4.78.
With `CCc1cccc2c(CN3CCC(c4cscn4)CC3)c[nH]c12` the figure was under 4.00.
Take `NCc1cccc(NC(=O)[C@H]2c3ccc(Br)cc3OCCN2C(=O)OCc2ccccc2)c1`: the pIC50 is under 4.00.
With `NCc1cccc(NC(=O)[C@H](NC(=O)[C@H]2CCOC2)c2ccc(OCc3ccccc3)cc2)c1` the figure was under 4.00; with `Cc1[nH]c2ccccc2c1CN1CCC(c2nc3ccccc3s2)CC1`, under 4.00.

(Values after ChEMBL document CHEMBL5604063, “ASAP - DENV-2 NS2B-NS3 protease fluorescence dose response” (2024).)
